Patent US11998549B2, “Methods of treating a vascular leakage-associated disease or disorder” (UNITY HEALTH TORONTO, priority 2019, dated 2024)

How the values were obtained:
Assay type in all cases: in vivo
[1] = test system: LPS induced zebrafish sepsis model; assay: Survival in LPS induced zebrafish sepsis model; details: comparison of UNC0642 and A366, zebrafish larvae, 27 μg/ml LPS, 24 h
Description: (§1) An LPS induced zebrafish sepsis model which mimics the hallmarks of human sepsis was developed (Philip et al., 2017). Zebrafish show varied susceptibility and responsiveness to LPS from different bacterial strains. Exposure of zebrafish larvae at 3 days post-fertilization (dpf) to two types of LPS (LPS from Escherichia coli 0111:B4 (Sigma) at 100 μg/ml for 5-6 hrs; or LPS from Salmonella at 27 μg/ml for 24 hrs) were both effective in inducing tail fin swelling, increased ROS production, increased vascular leakage and increased mortality.
Survival analyses for zebrafish (wildtype) exposed to various concentrations of LPS (Escherichia coli 0111:B4; Sigma) was performed. 3 dpf larvae were exposed to LPS by immersion technique. Larvae were treated with 10, 25, 50, 125, 250, 500, 1000, 2500, 5000 or 10000 nM UNC0642 along with 100 μg/ml LPS (LPS was dissolved in eggwater), by static immersion at 28.5° C. for 24 h in a total volume of 2 mL per treatment. Control larvae were exposed to egg water. Survival numbers were recorded and EC50s calculated.
(§2) 3 dpf larvae were exposed to LPS by immersion technique. […] Control larvae were exposed to egg water. Survival numbers were recorded and EC50s calculated. The percentage (%) of embryos showing vascular leakage was also recorded and 1050s calculated.

[2] = test system: LPS-induced vascular leakage; assay: Vascular leakage (leaked red blood cells in tailfin) in LPS-treated zebrafish larvae; details: comparison of UNC0642 and A366, zebrafish larvae, 27 μg/ml LPS, 24 h
Description: as §1
3 dpf Tg (flk1:GFP; gata-1:Dsred) double transgenic larvae were exposed to Vehicle, LPS (100 μg/ml) or LPS+1 μM UNC0642 by static immersion for 6 h at 28.5° C. to induce endothe-lial dysfunction and the resulting leakage of red blood cells. The larvae were then imaged using a Leica fluorescence microscope (Leica Microsystems, Wetzlar, Germany). Red blood cells that leaked out into the tailfin region were quantified.
as §2

zebrafish larvae = assay: Toxicity in zebrafish larvae; details: 3 dpf larvae, observed daily for 72 hours post incubation
Excerpt: Parameters of developmental toxicity (organ size and shape), cardiac toxicity (cardiac edema and heart rate), neuromuscular toxicity (touch response) and finally death were investigated.

COc1cc2c(cc1OCCCN1CCCC1)N=C(N)C21CCC1 [A366, 5-Methoxy-6′-[3-(1-pyrrolidinyl)propoxy]spiro[cyclobutane-1,3′-[3H]indol]-2′-amine]
Rescue of sepsis-associated mortality [1]: able to rescue | Rescue of sepsis-associated vascular leakage [2]: able to rescue | Concentration below which non-toxic to zebrafish embryos (zebrafish larvae): below 2.5 mM
